Laboratory results from article PMC11765572 (International Journal of Molecular Sciences, 2025).

Tested on: SARS-CoV-2 (BetaCov/Belgium/GHB-03021/2020 B.1 lineage A)

## CNC(=O)c1cc(Br)cc([N+](=O)[O-])c1N[C@@H]1CCCC[C@@H]1NC(=O)c1cncc(O)c1 [Compound A6, N-((1S,2R)-2-((4-bromo-2-(methylcarbamoyl)-6-nitrophenyl)amino)cyclohexyl)-5-hydroxynicotinamide]
  SI (Selection Index) = CC50/EC50: >16.5

## CNC(=O)c1cc(Br)cc([N+](=O)[O-])c1N[C@@H]1CCCC[C@@H]1NC(=O)c1cccnc1 [Compound A5, N-((1S,2R)-2-((4-bromo-2-(methylcarbamoyl)-6-nitrophenyl)amino)cyclohexyl)nicotinamide]
  SI (Selection Index) = CC50/EC50: >49.7
